According to patent publication US8637467B2, “Pharmaceutical being used for treating cancer and fibrosis disease and the composition and uses thereof” (Wuxi MTLH Biotechnology Co., Ltd., priority 2008, dated 2014):
Where no end group is shown, it is not given here.

Key:
α-SMA mRNA = assay: RT-PCR of α-SMA mRNA expression in HSC; type: cell-based, SD rat; conditions: after 48 hours, FIG. 4
Procedure: HSC from SD rats were separated using centrifuging on gradient created by Pronase-collagenase and Nycodenz. HSC cells at 1.5×10^5/cm2 was plated at 6-well plate, or culture dish (100 mm diameter). The culture medium is DMEM with 20% serum from newborn calf. The purity of HSC cells was determined using Vitamin A self-fluorescence and anti-Desmin immunocytochemistry experiments. Cell viability was determined using trypan blue staining. First generation HSC's purity and viability were 90% and 95% respectively. HSC can self-activate if grown in non-ECM condition, which means HSC can express α-SMA, and Vitamin A drop disappears. After cell fusion, activated HSC is released with trypsin, and propagate.
Use Trizol reagent to extract total RNA, then conduct two-step RT-PCR according to kit instructions.

[1] = test system: Rat CC14 liver damage model; assay: Rat CC14 liver damage model (chronic liver fibrosis); type: in vivo, SD rat; set-up: Liver parameters: unit not given here
Procedure: To evaluate the protective effect of peptide SEQ ID NO:1 on liver damage, we used chronic liver fibrosis model (rat CC14 model) for efficacy evaluation.
Rat CC14 liver damage model
(1) Control group: saline, sc, 2 ml/kg, 10 rats
(2) model group: 40% CC14, sc, 2 ml/kg, 17 rats
(3) Gan-li-xin group: 25 mg/kg, iv, 10 ml/kg, 15 rats
(4) Prevention, high dose group: 50 μg peptide SEQ ID NO:1/kg, iv, 10 ml/kg, 17 rats
(5) Prevention, low dose group: 10 μg peptide SEQ ID NO:1/kg, iv, 10 ml/kg, 17 rats
(6) Treatment, high dose group: 100 μg peptide SEQ ID NO:1/kg, iv, 10 ml/kg, 17 rats
(7) Treatment, high dose group: 20 μg peptide SEQ ID NO:1/kg, iv, 10 ml/kg, 17 rats
Except for control group, inject 40% CC14 subcutaneously twice (Tuesday, and Friday) every week in Group (2) to (6), drug volume (0.2 ml/100 g, the first time 0.5 ml/100 g). CC14 Model construction is 6 weeks. Parallel to the model construction, inject intravenously peptide SEQ ID NO:1 at 50 μg/kg and 10 μg/kg in group (4) and (5), respectively, once a day for 6 weeks. For Group (3), (6), and (7), starting from week 5, inject Gan-li-xin 25 mg/kg, peptide SEQ ID NO:1 at 100 μg/kg and 20 μg/kg, respectively, once a day, continuously for 2 weeks.
All rats were weighed once a week during model construction and drug injection. According to weight, the dose of drugs is adjusted. 24 hours after the last time of CC14 injection, liver weight parameters were examined.
Blood was extracted from femoral artery and serum was separated. The following parameters were examined: serum alanine aminotransferase (ALT), aspartate aminotransferase (AST), Bilirubin (TB), Alkaline phosphatase (ALP), total protein (TP), albumin (ALB), globulin (G), albumin/globulin ratio (A/G), glucose (GLU), total cholesterol (TCH), triglyceride (TG).
Liver homogenate: to examine cholesterol (TCH), triglyceride (TG), alanine aminotransferase (ALT), and aspartate aminotransferase (AST).
[…], dry at 110 C, examine Hydroxyproline (HPA).
Part of the liver is fixed in formalin for histology examination.

liver cancer (H22) = assay: Xenograph liver cancer nude mice model (H22); type: in vivo; conditions: H22, 1 mg/kg
Procedure: (§1) Experimental animals: Female BALB/cA nude mice, age 35-40 days, weight 18-22 g, provided by Shanghai Silaike Experimental Animal Co. Ltd., certificate number: SOCK (Shanghai) 2007-0005.
(§2) The tumor of xenograph nude mice grew to 100˜300 mm^3. Tumor mice were divided into different groups for drug testing. In the experiment below, there were 12 nude mice in negative control group, and 6 nude mice in the group with tested drug. Tumor diameter was measured three times each week, and mice weight was measured at the same time.
(§3) T/C (relative tumor inhibition rate) % was calculated as below: • (1) tumor volume, TV, calculated as below: TV=½×a×b^2 • A and b are length and width. • (2) relative tumor volume, RTV, calculated as below: RTV=TVt/TV0. • TV0 ? is tumor volume at the beginning of drug use (d0), TVt is tumor volume at later time point. • (3) relative tumor inhibition rate T/C (%), calculate as below:
(§4) [formula] TRTV: treatment group RTV; CRTV: negative control RTV

human lung cancer A549 = assay: Human lung cancer A549 xenograph nude mice; type: in vivo; conditions: 6 times a week, 3 weeks
Procedure: as §1, §2, §3, §4
Peptide SEQ ID No:1 was given through tail vein (IV), at dosing of 0.5 mg/kg, 0.25 mg/kg, and 0.125 mg/kg, 6 times a week. Docetaxol was positive control, at dosing of 20 mg/kg, once a week. Negative control was given saline solution. The xenograph nude mice were treated for 3 weeks.

[2] = test system: human liver cancer cell BEL-7402; assay: Cancer cell attachment to base membrane; type: cell-based; conditions: incubated with cancer cells for 12 hours, FIG. 6
[3] = Prevention, High dose 50 μg/kg iv, once a day for 6 weeks
[4] = Prevention, low dose 10 μg/kg iv, once a day for 6 weeks
[5] = Treatment, High dose 100 μg/kg iv, once a day for 2 weeks from week 5
[6] = Treatment, low dose 20 μg/kg iv, once a day for 2 weeks from week 5

Substance: SKVTKKYHEVLQLRPKTGVRGLHKSLTDVALEHHEECDCVCRGSTGG-OH (cysteines drawn unpaired) [Peptide SEQ ID NO:1]
- α-SMA mRNA expression (RT-PCR) (α-SMA mRNA): inhibits α-SMA mRNA expression
- ALB (albumin), serum [1, 3]: 20.8 ± 2.0 g/L
- ALP (alkaline phosphatase), serum [1, 3]: 266.3 ± 85.7 IU/L
- ALT (alanine aminotransferase), serum [1, 3]: 75 ± 29.4 IU/L
- AST (aspartate aminotransferase), serum [1, 3]: 236.8 ± 27.2 IU/L
- Bilirubin, serum [1, 3]: 3.3 ± 0.1 µmol/L
- GLU (glucose), serum [1, 3]: 6.5 ± 0.9 mmol/L
- Liver parameters [1, 3]: 4.3 ± 0.4
- Liver weight [1, 3]: 12.1 ± 2.5 g
- TCH (total cholesterol), serum [1, 3]: 1.9 ± 0.3 mmol/L
- TG (triglyceride), serum [1, 3]: 0.6 ± 0.1 mmol/L
- TP (total protein), serum [1, 3]: 68.3 ± 4.1 g/L
- hydroxyproline amount in rat liver [1, 3]: 0.216 ± 0.062 ug/mg wet weight
- ALB (albumin), serum [1, 4]: 18.8 ± 2.4 g/L
- ALP (alkaline phosphatase), serum [1, 4]: 304.3 ± 90.4 IU/L
- ALT (alanine aminotransferase), serum [1, 4]: 80.6 ± 21.3 IU/L
- AST (aspartate aminotransferase), serum [1, 4]: 248.8 ± 38.3 IU/L
- Bilirubin, serum [1, 4]: 3.3 ± 0.5 µmol/L
- GLU (glucose), serum [1, 4]: 6.2 ± 0.7 mmol/L
- Liver parameters [1, 4]: 4.1 ± 0.4
- Liver weight [1, 4]: 11.3 ± 2.5 g
- TCH (total cholesterol), serum [1, 4]: 1.6 ± 0.3 mmol/L
- TG (triglyceride), serum [1, 4]: 0.6 ± 0.2 mmol/L
- TP (total protein), serum [1, 4]: 66.4 ± 4.6 g/L
- hydroxyproline amount in rat liver [1, 4]: 0.192 ± 0.045 ug/mg wet weight
- ALB (albumin), serum [1, 5]: 19.7 ± 3.7 g/L
- ALP (alkaline phosphatase), serum [1, 5]: 216.5 ± 91.0 IU/L
- ALT (alanine aminotransferase), serum [1, 5]: 69.8 ± 31.3 IU/L
- AST (aspartate aminotransferase), serum [1, 5]: 219.6 ± 56.7 IU/L
- Bilirubin, serum [1, 5]: 2.9 ± 0.4 µmol/L
- GLU (glucose), serum [1, 5]: 6.3 ± 1.0 mmol/L
- Liver parameters [1, 5]: 4.0 ± 0.5
- Liver weight [1, 5]: 10.1 ± 3.2 g
- TCH (total cholesterol), serum [1, 5]: 2.1 ± 0.8 mmol/L
- TG (triglyceride), serum [1, 5]: 0.5 ± 0.2 mmol/L
- TP (total protein), serum [1, 5]: 70.4 ± 4.4 g/L
- hydroxyproline amount in rat liver [1, 5]: 0.165 ± 0.038 ug/mg wet weight
- ALB (albumin), serum [1, 6]: 18.8 ± 2.5 g/L
- ALP (alkaline phosphatase), serum [1, 6]: 357.1 ± 120.7 IU/L
- ALT (alanine aminotransferase), serum [1, 6]: 90.9 ± 37.3 IU/L
- AST (aspartate aminotransferase), serum [1, 6]: 260.0 ± 73.1 IU/L
- Bilirubin, serum [1, 6]: 3.3 ± 0.8 µmol/L
- GLU (glucose), serum [1, 6]: 6.1 ± 0.9 mmol/L
- Liver parameters [1, 6]: 4.4 ± 0.8
- Liver weight [1, 6]: 12.9 ± 4.7 g
- TCH (total cholesterol), serum [1, 6]: 1.6 ± 0.5 mmol/L
- TG (triglyceride), serum [1, 6]: 0.5 ± 0.2 mmol/L
- TP (total protein), serum [1, 6]: 69.1 ± 6.1 g/L
- hydroxyproline amount in rat liver [1, 6]: 0.222 ± 0.048 ug/mg wet weight
- steatosis and fat cavities in liver cells (histology) ([1]; prevention high dose group, 3 cases): 50-60%
- steatosis and fat cavities in liver cells (histology) ([1]; prevention high dose group, 5 cases): 60-80%
- steatosis and fat cavities in liver cells (histology) ([1]; prevention low dose group, all cases): 60-80%
- liver damage caused by CC14 in rat (summary) ([1]; serum biochemical parameters, liver hydroxyproline amount, liver pathological features): can improve liver damage caused by CC14 in rat
- steatosis and fat cavities in liver cells (histology) ([1]; treatment high dose group, 2 cases): Over 80%
- steatosis and fat cavities in liver cells (histology) ([1]; treatment high dose group, 2 cases with less steatosis): 50-60%
- steatosis and fat cavities in liver cells (histology) ([1]; treatment high dose group, 4 cases with even less steatosis): < 30%
- inhibition rate, tumor (liver cancer (H22)): 67.8%
- T/C(%) relative tumor inhibition rate (human lung cancer A549; 0.125 mg/kg IV): 48.96%
- T/C(%) relative tumor inhibition rate (human lung cancer A549; 0.25 mg/kg IV): 47.98%
- cancer cell attachment to base membrane [2]: inhibited cancer cell attachment to base membrane
